Measured values published in paper PMC8443647, “Hybrid derivative of cathelicidin and human beta defensin-2 against Gram-positive bacteria: A novel approach for the treatment of bacterial keratitis” (Scientific Reports, 2021).
Values joined by “and” are separate entries in the source; they are usually repeats but may differ in a detail not shown here. Equal values may be shown once. Read-outs that look alike come from different tables or passages of the source. Blank lines part the entries; values can stand above or below the compound they belong to. Bridge positions count the residues as written; N and C are the ends. Ends that are not written are not given here. Peptide text beside a SMILES is read from it.

What was measured:
[1] = tested on: Gram-positive or Gram-negative bacteria; test: MIC assay, all tested organisms summarised; assay type: cell-based; conditions: summary over the organisms tested, without salt
Excerpt: (§1) A range of Gram-positive and Gram-negative laboratory- and clinical-strain bacteria were used for the experiments. These included laboratory-strain methicillin-sensitive S. aureus (MSSA; including SH1000 and ATCC SA29213), laboratory-strain MRSA (ATCC MRSA43300), clinical-strain MRSA (MRSA-OS; an IK isolate), laboratory-strain methicillin-sensitive Staphylococcus epidermidis (MSSE; ATCC SE12228), laboratory invasive-strain P. aeruginosa (PAO1-L), and clinical cytotoxic-strain P. aeruginosa (PA-OS; an IK isolate).
In vitro antimicrobial efficacy of the antibiotics and designed HDPs was determined using an established MIC assay with broth microdilution method approved by the Clinical and Laboratory Standards Institute (CLSI)[64]. Briefly, the microorganisms were cultured on Tryptone Soya Agar (TSA) and incubated overnight for 18–21 h at 37 °C. Bacterial inoculums were subsequently prepared using the direct colony suspension method. Three to five bacterial colonies were obtained from the agar plate and inoculated into an Eppendorf tube containing 1 ml of cation-adjusted Muller-Hinton broth (caMHB), consisting of 20–25 mg/L calcium ions (Ca^2+) and 10–12.5 mg/L magnesium ions (Mg^2+). […]

MRSA-OS = test: microbe, parasite or virus in culture; assay type: cell-based, Staphylococcus aureus; conditions: 24 h
Excerpt: as §1
(§2) In vitro antimicrobial efficacy of the antibiotics and designed HDPs was determined using an established MIC assay with broth microdilution method approved by the Clinical and Laboratory Standards Institute (CLSI)[64]. Briefly, the microorganisms were cultured on Tryptone Soya Agar (TSA) and incubated overnight for 18–21 h at 37 °C. Bacterial inoculums were subsequently prepared using the direct colony suspension method. Three to five bacterial colonies were obtained from the agar plate and inoculated into an Eppendorf tube containing 1 ml of cation-adjusted Muller-Hinton broth (caMHB), consisting of 20–25 mg/L calcium ions (Ca^2+) and 10–12.5 mg/L magnesium ions (Mg^2+). The bacterial suspension was adjusted to achieve a turbidity equivalent to 0.1 OD600 or 0.5 MacFarland, containing ~ 1.5 × 10^8 colony-forming unit (CFU)/ml, which was then further diluted in 1:150 in caMHB to reach a final bacterial concentration of ~ 1 × 10^6 colony forming units (CFU)/ml. Each treatment (peptide or antibiotic) was prepared in 1:2 serial dilution in 96-well polypropylene microplates (with a final treatment volume of 50 μl per well), followed by the addition of 50 μl of 1 × 10^6 CFU/ml bacteria into each well (with a final bacterial concentration of 5 × 10^5 CFU/ml).

S. aureus SH1000 = test: microbe, parasite or virus in culture; assay type: cell-based, Staphylococcus aureus
Excerpt: as §1, §2

S. aureus ATCC 29213 = test: Murine S. aureus keratitis model (in vivo efficacy); parameters: species or system Staphylococcus aureus; C57BL/6J mice; conditions: levofloxacin 0.5%
Experimental: Based on the in vivo safety data, the highest tolerable concentration of CaD23, 500 μg/ml (0.05%), was used in the subsequent S. aureus keratitis murine model. Levofloxacin 0.5%, a commonly used antibiotic for BK in clinical setting, and PBS were used as the positive and negative controls, respectively.
All mice were randomly allocated to each treatment group (n = 5 mice/group). Slit-lamp examination was performed before the start of experiment to confirm the health of corneas. […] 10 μl of ~ 1 × 10^8 CFU/ml of ATCC SA29213 was applied topically onto the cornea and the lid was held shut for 1 min. […] The eyes were monitored daily using slit-lamp biomicroscopy and photography. Ocular clinical scoring was adapted from a previous method described by Clemens et al.[52] with minor modifications: (a) 0: Clear cornea or minimal opacity, partially covering the pupil; (b) + 1: Mild opacity, partially/fully covering the pupil; (c) + 2: Dense opacity, partially covering the pupil; (d) + 3: Dense opacity fully covering the pupil; and (e) + 4: Corneal perforation or phthisis.
At the end of day 3, all animals were sacrificed, and the infected eyes were enucleated. The whole corneas were subsequently dissected and homogenized in 1 ml of sterile PBS using sterile glass micro-beads. The homogenised infected corneal tissue suspension was serially diluted in 1:10 and plated on TSA plates in triplicates for enumeration of CFU after 24 h incubation at 37 °C.

P. aeruginosa PA-OS = test: microbe, parasite or virus in culture; assay type: cell-based; conditions: Pseudomonas aeruginosa, 24 h, caMHB, read-out: MIC
Excerpt: as §1, §2

P. aeruginosa PAO1-L = test: microbe, parasite or virus in culture; assay type: cell-based
Excerpt: as §1, §2

fresh human erythrocytes = test: Hemolytic assay; assay type: cell-based; conditions: 1 h
Experimental: (§3) Ethical approval was obtained from the Local Research Ethics Committee of University of Nottingham prior to the experiment (Ref: 176-1812). The experiment was conducted in accordance with the relevant guidelines and regulations. Hemolytic assay was performed according to the previously established protocol. Briefly, 5 ml of fresh human blood was collected from healthy participants with written informed consent, in an EDTA tube and centrifuged for 10 min at 1300g at 10 °C for separation of plasma. The remaining erythrocytes were rinsed and centrifuged further three times in Ca^2+/Mg^2+ free Dulbecco’s phosphate-buffered saline (DPBS). Subsequently, erythrocytes were diluted to 8% v/v in DPBS and incubated with 100 μl of treatment, positive control (1% Triton X-100) and negative control (DPBS), all in 1:1 ratio, for 1 h (final erythrocytes concentration = 4% v/v). After 1 h of incubation, the plate was centrifuged at 500×g for 5 min and 100 μl of supernatant of each well was transferred into a 96-well plate for measurement at OD540. Hemolysis (%) was calculated as [(Itreatment – INC)/(IPC – INC)] × 100.

Hemolytic assay = assay type: cell-based; conditions: human, Hmax (%): percentage of hemolysis at 200 µg/ml
Experimental: as §3

[2] = tested on: human corneal epithelial cells (HCE-2); test: cells; assay type: cell-based; conditions: 3 h
Experimental: (§4) Cell viability and cytotoxicity of antibiotics and peptides were determined against human corneal epithelial cells (HCE-2, CRL-11135, ATCC, Manassas, Virginia, USA) using cell-counting-kit-8 (CCK-8) assay (Sigma Aldrich, Merck Life Science UK Limited, Dorset, UK) and lactate dehydrogenase (LDH) assay (ThermoFisher Scientific, UK), respectively, as per manufacturer’s guidelines. HCE-2 cells were cultured and seeded into a 96-well plate at a density of 7.5 × 10^3 cells/well and allowed to attach overnight and grew to 80–90% confluency in keratinocyte serum free medium (KSFM) supplemented with human recombinant epidermal growth factor, bovine pituitary extract, hydrocortisone, and insulin. Once the confluency reached 80–90%, the cells were incubated with treatment for 3 h before OD450 measurement was taken using BMG Clariostar microplate reader (BMG Labtech Ltd., Aylesbury, UK). Appropriate controls were used, including 0.1% Triton X-100 as positive control and KSFM as negative control. Cell viability was calculated using the following formula: [([…]) × 100; I = intensity] and cytotoxicity was calculated using the following formula: [((Itreatment – INC)/(IPC – INC)) × 100].

in vitro = assay type: cell-based, human; conditions: human
Experimental: as §4

[3] = tested on: human corneal epithelial cells (HCE-2); test: in vitro; assay type: cell-based
Experimental: as §4

[4] = 0 mM NaCl, caMHB, 24 h, listed as LL-37
[5] = 0 mM NaCl, caMHB, 24 h, read-out: MIC

Compound: GIGDPVTCLKSGAICHPVFCPRRYKQIGTCGLPGTKCCKKP (disulfide 8-37, 15-30, 20-38 (inferred)) [HBD2, GIGDPVTCLKSGAICHPVFCPRRYKQIGTCGLPGTKCCKKP]
- MIC [1]: 100 µg/mL

- MIC (MRSA-OS; 150 mM NaCl, caMHB): 0.31 µg/mL
- MIC (MRSA-OS; 150 mM NaCl, caMHB, read-out: MIC): 0.86 µM
- MIC (MRSA-OS; Staphylococcus aureus, MRSA, 0 mM NaCl, caMHB, read-out: MIC): 0.31 µg/mL and 0.86 µM
- MIC (S. aureus SH1000; Staphylococcus aureus, SH1000, 24 h, 0 mM NaCl, caMHB, 24 h, read-out: MIC): 0.31 µg/mL and 0.86 µM
- MIC (S. aureus SH1000; Staphylococcus aureus, SH1000, 24 h, 150 mM NaCl, caMHB, 24 h, read-out: MIC): 0.31 µg/mL and 0.86 µM
- MIC (P. aeruginosa PA-OS; 0 mM NaCl): 0.31 µg/mL and 0.86 µM
- MIC (P. aeruginosa PA-OS; 150 mM NaCl): 0.31 µg/mL and 0.86 µM
- MIC (P. aeruginosa PAO1-L; Pseudomonas aeruginosa, PAO1, 24 h, 0 mM NaCl, caMHB, 24 h, read-out: MIC): 0.31 µg/mL and 0.86 µM
- MIC (P. aeruginosa PAO1-L; Pseudomonas aeruginosa, PAO1, 24 h, 150 mM NaCl, caMHB, 24 h, read-out: MIC): 0.31 µg/mL and 0.86 µM
Compound: C[C@H]1COc2c(N3CCN(C)CC3)c(F)cc3c(=O)c(C(=O)O)cn1c23 [Levofloxacin, levofloxacin, reference compound]
- S. aureus bacterial viability (S. aureus ATCC 29213; CaD23 0.05%, after 3 days of treatment, median ± IQR): 2.4 ± 2.2 log10 CFU/ml
- Reduction of S. aureus bacterial viability compared to PBS group (S. aureus ATCC 29213; CaD23 0.05%, topical 4 times a day for 3 days, median): 98%
- Ocular clinical scoring (S. aureus ATCC 29213; day 3 post-treatment, CaD23 0.05%, scale 0 to +4): 1.0 ± 0.71
- Median reduction in the bacterial bioburden compared to the PBS group (S. aureus ATCC 29213): 1.8 logCFU
- HC50 (concentration causing 50% hemolysis) (fresh human erythrocytes): > 200 µg/mL
- hemolysis at 1 h, 200 µg/ml (Hemolytic assay): 0%
- Imax (%): percentage of inhibition of cell viability at 200 µg/ml ([2]; HCE-2, CCK-8 assay, 200 µg/ml, mean (SD)): 108.0 (2.8) %
- IC50 ([2]; Homo sapiens, Corneal epithelial cell, HCE-2, CCK-8 assay, mean (SD), read-out: IC50 (concentration causing 50% inhibition of cell viability)): > 200 µg/mL
- CC50 at 3 h (in vitro): > 200 µg/mL
- Lmax (%): percentage of cytotoxicity at 200 µg/ml ([3]; human, 3 h, 200 µg/ml): 1.2 (0.7) %

Compound: CC[C@H](C)[C@H](NC(=O)[C@H](CCCCN)NC(=O)[C@H](CCC(=O)O)NC(=O)[C@H](CCCCN)NC(=O)[C@H](CO)NC(=O)[C@H](CCCCN)NC(=O)[C@H](CCCNC(=N)N)NC(=O)[C@H](Cc1ccccc1)NC(=O)[C@H](Cc1ccccc1)NC(=O)[C@H](CC(=O)O)NC(=O)CNC(=O)[C@H](CC(C)C)NC(=O)[C@@H](N)CC(C)C)C(=O)NCC(=O)N[C@@H](CCCCN)C(=O)N[C@@H](CCC(=O)O)C(=O)N[C@@H](Cc1ccccc1)C(=O)N[C@@H](CCCCN)C(=O)N[C@@H](CCCNC(=N)N)C(=O)N[C@H](C(=O)N[C@H](C(=O)N[C@@H](CCC(N)=O)C(=O)N[C@@H](CCCNC(=N)N)C(=O)N[C@H](C(=O)N[C@@H](CCCCN)C(=O)N[C@@H](CC(=O)O)C(=O)N[C@@H](Cc1ccccc1)C(=O)N[C@@H](CC(C)C)C(=O)N[C@@H](CCCNC(=N)N)C(=O)N[C@@H](CC(N)=O)C(=O)N[C@@H](CC(C)C)C(=O)N[C@H](C(=O)N1CCC[C@H]1C(=O)N[C@@H](CCCNC(=N)N)C(=O)N[C@H](C(=O)N[C@@H](CCC(=O)O)C(=O)N[C@@H](CO)C(=O)O)[C@@H](C)O)C(C)C)[C@@H](C)CC)C(C)C)[C@@H](C)CC [LL37, LLGDFFRKSKEKIGKEFKRIVQRIKDFLRNLVPRTES, reference compound]
- MIC (MRSA-OS; 0 mM NaCl, caMHB): 25 µg/mL
- MIC (MRSA-OS; 0 mM NaCl, caMHB, listed as LL-37): 25 µg/mL
- MIC (MRSA-OS; 0 mM NaCl, caMHB, read-out: MIC): 5.6 µM
- MIC (S. aureus SH1000; 0 mM NaCl, caMHB, 24 h): 25 µg/mL
- MIC (S. aureus SH1000; [4]): 25.0 µg/mL
- MIC (S. aureus SH1000; [5]): 5.6 µM
- MIC (P. aeruginosa PAO1-L; 0 mM NaCl, caMHB, 24 h): 50 µg/mL
- MIC (P. aeruginosa PAO1-L; [4]): 50 µg/mL
- MIC (P. aeruginosa PAO1-L; [5]): 11.1 µM
- MIC [1]: 25 to 50 µg/mL

Compound: CC[C@H](C)[C@H](NC(=O)[C@H](CCCNC(=N)N)NC(=O)[C@H](CCC(N)=O)NC(=O)[C@@H](NC(=O)[C@@H](NC(=O)[C@H](CCCNC(=N)N)NC(=O)[C@@H](N)CCCCN)[C@@H](C)CC)C(C)C)C(=O)N[C@@H](CCCCN)C(=O)N[C@@H](CC(=O)O)C(=O)N[C@@H](Cc1ccccc1)C(=O)N[C@@H](CC(C)C)C(=O)N[C@@H](CCCNC(=N)N)C(=O)N[C@@H](CCCCN)C(=O)N[C@@H](CS)C(=O)N[C@@H](CS)C(=O)N[C@@H](CCCCN)C(=O)N[C@@H](CCCCN)C(=O)N1CCC[C@H]1C(=O)O [CaD2, KRIVQRIKDF LRKCCKKP] (H-KRIVQRIKDFLRKCCKKP-OH; N-terminus and C-terminus assumed)
- MIC (MRSA-OS; -OS): > 200 µg/mL
- MIC (S. aureus SH1000; SH1000, 24 h): > 200 µg/mL
- MIC (P. aeruginosa PAO1-L; PAO1, 24 h): > 200 µg/mL
- IC50 (concentration causing 50% inhibition of cell viability) [2]: > 200 µg/mL
- CC50 at 3 h (in vitro): > 200 µg/mL
- Lmax (%): percentage of cytotoxicity at 200 µg/ml [3]: 2.9 (2.2) %
